# From paper PMC4471902, “Block of NMDA receptor channels by endogenous neurosteroids: implications for the agonist induced conformational states of the channel vestibule” (Scientific Reports, 2015)
# Assays:
# [1] = target: T1, GluN1(A649T)/GluN2B receptors (Rattus norvegicus, UniProt P35439+Q00960, A649T); assay: Whole-cell patch-clamp of GluN1(A649T)/GluN2B receptor responses in HEK293 cells; assay type: cell-based
# T1 construct: expressed in transfected cells; host or cells: HEK293
# Description: (§1) Human embryonic kidney (HEK293) cells were transfected with expression vectors containing: GluN1–1a (GenBank accession number U08261)[52]; GluN2B (GenBank accession number M91562); GluN1-4a(F484A), (generous gift from Dr. J. J. Woodward)[53] (Smothers & Woodward, 2009); GluN3A (generous gift from Dr. S. A. Lipton)[54] (GenBank accession number NM_138546); GluN1ΔN with deleted 354 amino acids in the NTD (32 to 386); GluN1ΔC with an introduced stop codon in 838 of the CTD GluN2BΔN) with deleted 354 amino acids in the NTD (32 to 386); GluN2BΔC with an introduced stop codon in 844 of the CTD[55]; GluR0 (GenBank accession number Synechocystis PCC 6803) (generous gift from Dr. M. L. Mayer)[18]; and green fluorescent protein (GFP) (pQBI 25, Takara, Tokyo, Japan) genes, as described previously. The Quick-Change site-directed mutagenesis kit (Agilent Technologies, Santa Clara, CA, USA) was used to generate specific point mutations in the M1/M3 region according to the manufacturer’s instructions using manually designed primers purchased from Sigma. Modified DNA plasmids were transformed into competent XL10-Gold E.coli cells, positive clones were selected, and isolated DNA was sequenced. […] All mutations were verified by DNA sequencing (Macrogen, Seoul, Korea or SeQme, Dobris, Czech Republic). The amino acids are numbered according to the full-length protein, including the signal peptide, with the initiating methionine as 1.
# (§2) Experiments were performed 24–48 hrs after transfection on cells transfected with GluN1/GluN2B/GFP plasmids. Whole-cell voltage-clamp recordings from HEK293 cells were made with a patch-clamp amplifier (Axopatch 200B; Axon Instruments, Inc., Foster City, CA) after a capacitance and series resistance (<10 MΩ) compensation of 80–90%.
# (§3) Patch pipettes (3–5 MΩ) were filled with a solution containing (in mM): 120 gluconic acid, 15 CsCl, 10 BAPTA, 10 HEPES, 3 MgCl2, 1 CaCl2, and 2 ATP-Mg salt (pH-adjusted to 7.2 with CsOH). […]
# [2] = target: T2, GluN1/GluN2B receptors (Rattus norvegicus, UniProt P35439+Q00960); design: method as in PMID 22188257; conditions: from −60 to +60 mV; cited from earlier work
# T2 construct: expressed in transfected cells; host or cells: HEK293
# [3] = target: T3, GluN1(T648A)/GluN2B receptors (Rattus norvegicus, UniProt P35439+Q00960, T648A); assay: Whole-cell patch-clamp of GluN1(T648A)/GluN2B receptor responses in HEK293 cells; assay type: cell-based; conditions: for sensitivity of spontaneous currents (absence of glutamate and glycine) to antagonist: 100 μM
# T3 construct: expressed in transfected cells; host or cells: HEK293
# Description: as §1, §2
# (§4) Patch pipettes (3–5 MΩ) were filled with a solution containing (in mM): 120 gluconic acid, 15 CsCl, 10 BAPTA, 10 HEPES, 3 MgCl2, 1 CaCl2, and 2 ATP-Mg salt (pH-adjusted to 7.2 with CsOH). When GluR0 receptor responses were studied, intracellular solution contained (in mM): 120 gluconic acid, 15 KCl, 10 BAPTA, 10 HEPES, 3 MgCl2, 1 CaCl2, and 2 ATP-Mg salt (pH-adjusted to 7.2 with KOH). Extracellular solution (ECS) contained the following (in mM): 160 NaCl, 2.5 KCl, 10 HEPES, 10 glucose, 0.2 EDTA, and 0.7 CaCl2 (pH-adjusted to 7.3 with NaOH). Glycine (10 μM), an NMDAR co-agonist, was present in the control and test solutions. All (PA-S and PA-A) solutions were made from freshly prepared 20 mM PA-S and 5 mM PA-A stock in dimethyl sulfoxide (DMSO). The final dilution to ECS was made at 50 °C and followed by 1 min sonication (SONOREX DIGITEC DT 100/H, BADELIN electronic, Berlin, Germany). The same concentration of DMSO was added to all extracellular solutions. Drug applications were made with a microprocessor-controlled multibarrel fast-perfusion system. Changes in the glutamate-induced current in HEK293 cells transfected by GluN1/GluN2B subunits were used to estimate the rate of solution exchange around the cell. Standard ECS was switched to the ECS diluted by water (50%) during glutamate application. The osmolarity was adjusted by sucrose to match the standard ECS. Glutamate (1 mM), glycine (10 μM) and pH was maintained constant in both solutions. The solution exchange rate was estimated to be τ = 4.3 ± 0.3 ms (n = 6) for lifted cells and τ = 12.0 ± 0.9 ms (n = 6) for the attached cells.
# The IC50 was determined from a single dose of a steroid using the formula [drawing 1] where I is the relative degree of inhibition and [steroid] is the steroid concentration used. Calculations of IC50 were made assuming 100% inhibition at saturating steroid concentration this is valid for both PA-S and PA-A[12][13]. […]
# [4] = target: T4, GluN1(V656A)/GluN2B receptors (Rattus norvegicus, UniProt P35439+Q00960, V656A); assay: Whole-cell patch-clamp of GluN1(V656A)/GluN2B receptor responses in HEK293 cells; assay type: cell-based
# T4 construct: expressed in transfected cells; host or cells: HEK293
# Description: as §1, §2, §3
# [5] = target: T2, GluN1/GluN2B receptors; assay: Whole-cell patch-clamp of GluN1/GluN2B receptor responses in transfected HEK293 cells; assay type: cell-based
# Description: as §1, §2, §4
# Experiments were performed at room temperature (21–25 °C). Data were collected (low-pass filtered at 2 kHz and sampled at 10 kHz) and analyzed using pClamp 10 (Molecular Devices). Unless otherwise mentioned, error bars represent SEM; statistical comparison of groups was performed using Student’s t-test (p < 0.05 was used to determine the significance).
# The IC50 was determined from a single dose of a steroid using the formula [drawing 1] where I is the relative degree of inhibition and [steroid] is the steroid concentration used. […]
# [6] = PA-A 20 μM, fit to the Boltzmann equation
# [7] = PA-A 20 μM, fit to the Boltzmann equation, read-out: Kd(0 mV)
# T2 sequence (Q00960 27-1482, other chains not shown): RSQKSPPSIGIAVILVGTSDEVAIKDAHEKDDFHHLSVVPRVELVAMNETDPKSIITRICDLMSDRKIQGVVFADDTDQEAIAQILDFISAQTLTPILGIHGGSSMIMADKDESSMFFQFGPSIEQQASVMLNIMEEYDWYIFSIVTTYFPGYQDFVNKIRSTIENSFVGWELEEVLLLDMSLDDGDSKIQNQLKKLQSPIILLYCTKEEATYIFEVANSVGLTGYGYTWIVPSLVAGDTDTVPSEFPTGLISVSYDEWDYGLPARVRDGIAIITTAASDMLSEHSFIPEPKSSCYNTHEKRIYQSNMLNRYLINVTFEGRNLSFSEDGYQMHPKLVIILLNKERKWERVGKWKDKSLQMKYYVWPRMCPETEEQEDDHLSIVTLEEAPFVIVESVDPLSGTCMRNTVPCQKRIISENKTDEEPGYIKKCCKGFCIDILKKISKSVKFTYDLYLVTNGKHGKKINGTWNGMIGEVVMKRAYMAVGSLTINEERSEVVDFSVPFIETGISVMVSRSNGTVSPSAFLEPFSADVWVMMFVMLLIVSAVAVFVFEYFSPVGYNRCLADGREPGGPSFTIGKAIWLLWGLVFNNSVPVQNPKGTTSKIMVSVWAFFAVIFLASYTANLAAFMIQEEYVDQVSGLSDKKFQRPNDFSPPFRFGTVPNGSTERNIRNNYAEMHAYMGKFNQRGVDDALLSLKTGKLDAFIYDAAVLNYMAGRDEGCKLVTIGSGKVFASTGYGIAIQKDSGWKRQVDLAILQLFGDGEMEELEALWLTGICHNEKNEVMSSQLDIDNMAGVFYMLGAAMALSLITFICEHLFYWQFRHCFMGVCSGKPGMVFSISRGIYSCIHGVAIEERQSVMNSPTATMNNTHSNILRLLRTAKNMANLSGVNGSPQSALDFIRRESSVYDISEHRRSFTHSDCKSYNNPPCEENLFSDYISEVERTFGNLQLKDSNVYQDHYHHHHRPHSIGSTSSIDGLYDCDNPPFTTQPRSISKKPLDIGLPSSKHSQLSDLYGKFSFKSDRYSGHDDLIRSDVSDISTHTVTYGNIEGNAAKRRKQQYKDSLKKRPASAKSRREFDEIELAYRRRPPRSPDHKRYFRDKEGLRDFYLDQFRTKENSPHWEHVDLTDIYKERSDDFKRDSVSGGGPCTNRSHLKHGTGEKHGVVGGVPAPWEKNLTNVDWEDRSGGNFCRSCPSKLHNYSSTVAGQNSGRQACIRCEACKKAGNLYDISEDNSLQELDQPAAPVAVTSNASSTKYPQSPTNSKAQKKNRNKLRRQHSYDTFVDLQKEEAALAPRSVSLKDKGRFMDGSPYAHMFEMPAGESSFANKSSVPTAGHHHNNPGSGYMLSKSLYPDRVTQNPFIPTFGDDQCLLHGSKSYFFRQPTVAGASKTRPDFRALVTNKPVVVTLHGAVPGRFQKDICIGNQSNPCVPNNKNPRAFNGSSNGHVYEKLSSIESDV
# T1 sequence (Q00960 27-1482, other chains not shown): as above
# T3 sequence (Q00960 27-1482, other chains not shown): as above
Compound,voltage dependence of steroid inhibition [1],"δ (apparent electrical distance of the binding site) [1, 6]","Kd [1, 7] [µM]",voltage dependence of inhibition [2],voltage dependence of steroid inhibition [3],"δ (apparent electrical distance of the binding site) [3, 6]","Kd [3, 7] [µM]",voltage dependence of steroid inhibition [4],δ (apparent electrical distance of the binding site) ([4]; fit to the Boltzmann equation),"Kd ([4]; fit to the Boltzmann equation, read-out: Kd(0 mV)) [µM]",voltage dependence of steroid inhibition ([5]; WT GluN1/GluN2B),"δ (apparent electrical distance of the binding site) ([5]; WT, PA-A 20 μM, fit to the Boltzmann equation)","Kd ([5]; WT, PA-A 20 μM, fit to the Boltzmann equation, read-out: Kd(0 mV)) [µM]",mode of inhibition ([5]; dependence on receptor activation by agonists),sensitivity of spontaneous currents (absence of glutamate and glycine) to antagonist [3]
"CC(=O)C1CCC2C3CC[C@@H]4C[C@H](OC(=O)C[N+](C)(C)C)CC[C@]4(C)C3CC[C@]12C (stereo partly drawn) [PA-A, 5β-pregnan-20-on 3α-yl-[(2-trimethylammonio)-ethanoate]]",intermediate voltage dependence,0.23,745,voltage independent,strongly voltage dependent,0.29,340,intermediate voltage dependence,0.19,193,weak voltage dependence,0.15,335,use-dependent,
"O=C(O)c1cc(O)c2ccc(Cl)cc2n1 [7-CKA, 7-Cl-kynurenic acid, reference compound]",,,,,,,,,,,,,,,only moderately sensitive
"N[C@H](CCCP(=O)(O)O)C(=O)O [D-AP5, D-amino-5-phosphonopentanoic acid, reference compound]",,,,,,,,,,,,,,,only moderately sensitive
